In US20260062422A1 (Halda Therapeutics OpCo, Inc., priority 2022, published 2026) one finds Kd and GI50 data, which are given here for four molecules.

The structures appear in SMILES notation.

A word on the Kd: it is the constant that tells how readily two partners part at equilibrium. Higher therefore signals lower affinity. As a reminder, the GI50 is the concentration that inhibits growth by half.

For test [1], the target named is T1, androgen receptor (Homo sapiens, UniProt P10275).
T1 sequence (P10275 1-920 T878A): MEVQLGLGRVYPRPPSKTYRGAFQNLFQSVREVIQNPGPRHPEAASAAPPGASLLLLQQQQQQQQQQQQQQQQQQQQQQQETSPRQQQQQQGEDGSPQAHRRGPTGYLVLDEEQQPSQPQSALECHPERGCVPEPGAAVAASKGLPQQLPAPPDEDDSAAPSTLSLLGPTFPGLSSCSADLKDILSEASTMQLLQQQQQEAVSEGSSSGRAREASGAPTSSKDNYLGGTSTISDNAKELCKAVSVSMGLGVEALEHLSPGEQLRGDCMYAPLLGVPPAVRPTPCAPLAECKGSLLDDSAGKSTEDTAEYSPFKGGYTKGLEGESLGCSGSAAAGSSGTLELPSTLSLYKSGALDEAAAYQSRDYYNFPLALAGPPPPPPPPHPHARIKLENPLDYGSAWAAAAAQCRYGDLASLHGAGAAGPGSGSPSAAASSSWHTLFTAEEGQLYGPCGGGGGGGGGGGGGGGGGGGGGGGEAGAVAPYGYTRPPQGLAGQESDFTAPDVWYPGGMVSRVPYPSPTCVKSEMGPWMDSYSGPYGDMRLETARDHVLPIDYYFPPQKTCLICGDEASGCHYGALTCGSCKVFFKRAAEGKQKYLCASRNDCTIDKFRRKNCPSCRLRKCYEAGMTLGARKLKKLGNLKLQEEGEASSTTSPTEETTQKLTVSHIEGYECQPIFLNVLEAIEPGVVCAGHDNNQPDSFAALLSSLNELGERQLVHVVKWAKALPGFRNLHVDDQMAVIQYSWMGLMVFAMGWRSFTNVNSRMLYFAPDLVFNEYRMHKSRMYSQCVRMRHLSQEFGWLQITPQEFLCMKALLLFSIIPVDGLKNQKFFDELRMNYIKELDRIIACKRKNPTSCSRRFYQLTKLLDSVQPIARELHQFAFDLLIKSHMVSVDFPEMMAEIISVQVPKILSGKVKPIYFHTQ
As to the kind of experiment: Assay for binding affinity to androgen receptor ([3H]methyltrienolone radioligand, cell cytosol). Particulars: 1 nM [3H]methyltrienolone, 24 hours at 4° C., Table 5. The method, boiled down:
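Competition binding in cell cytosol ([…]) with 1 nM [3H]methyltrienolone, 24 hours at 4° C, in pH 7.4 Hepes-Tris buffer with 5 μM triamcinolone acetonide; nonspecific binding defined by 1 μM testosterone. Filtration and scintillation counting; values reported as % inhibition of specific binding.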

Test [2] concerns T-Rex 293 cell line SC cells lacking increased expression of progesterone receptor isoform B protein. As to the kind of experiment: Cellular growth inhibition, T-Rex 293 SC cells without doxycycline, Example 47. The test is classed as cell-based. As to conditions: T-Rex 293 SC cells not exposed to doxycycline, 72 hours, CellTiter-Glo 2.0; Table 15 (Example 47). As to the method: The following types of cells were prepared for this experiment: (i) a T-Rex 293 cell line having increased expression of progesterone receptor isoform B protein due to exposure to doxycycline and (ii) a T-Rex 293 cell line lacking increased expression of progesterone receptor isoform B protein. Ability of the test compounds to inhibit proliferation of the foregoing cell types was evaluated according to the procedures set forth below.
The doxycycline-inducible progesterone receptor isoform B protein expressing cell line was established using the following protocol: T-Rex 293 cells were purchased from Invitrogen (Cat #R71007) and transfected using Lipofectamine 2000 with the wild-type progesterone receptor B protein sequence cloned into the pcDNA4/TO vector. Transfected cells were selected using 400 μg/mL Zeocin (Invitrogen Cat #R25001). Following selection, single clones were raised and maintained in Dulbecco's Modified Eagle Medium (DMEM) supplemented with 10% w/w Tetracycline-free fetal bovine serum (FBS) and 250 μg/mL Zeocin. Clones were analyzed for expression of progesterone receptor isoform B protein in the presence and absence of 10 ng/mL doxycycline (Sigma Cat #D9891), and a single doxycycline-inducible clone (hereinafter “SC”) was selected for use in downstream assays.
The SC cells were seeded on poly-D-lysine coated, black clear-bottom 384-well plates at 2500/well, in 25 μL Phenol Red Free Dulbecco's Modified Eagle Medium (DMEM) supplemented with 10% w/w charcoal-dextran treated fetal bovine serum (FBS) and 1% w/w pen-strep, with or without 10 ng/mL doxycycline. Pen-Strep is a commercially available mixture of penicillin G and streptomycin, which is used in mammalian cell culture media to prevent bacterial contamination. Phenol Red Free Dulbecco's Modified Eagle Medium (DMEM) supplemented with 10% w/w charcoal-dextran treated fetal bovine serum (FBS) and 1% w/w pen-strep, with or without 10 ng/mL doxycycline is herein referred to as Treatment Medium. Following seeding of cells in the plates, the plates were spun at 300×g for 30 seconds, then equilibrated to room temperature for 30 minutes, and then deposited in a humidified tissue culture incubator maintained at 37° C. with 5% CO2.
At 24 hours after seeding of the cells, dilutions of test compound were prepared in DMSO and dissolved in Treatment Medium, to achieve a final DMSO concentration of 0.5% w/w, thereby providing the Test Compound Solution. A 25 μL aliquot of the Test Compound Solution was added to cells in the well plates. An equal volume of a solution containing DMSO and Treatment Medium was used as a negative control. Following treatment of cells with Test Compound Solution or said equal volume of a solution containing DMSO and Treatment Medium, the plates were spun at 300×g for 30 seconds, and then left in an incubator for 72 hours.
At the end of the treatment duration, cell viability was quantified with CellTiter-Glo 2.0 reagent (Promega Cat #G9243). For this purpose, plates were equilibrated to room temperature for 30 minutes, and then 25 μL of CellTiter-Glo 2.0 reagent was added to cells in the plate wells. Plates were then agitated on a shaker for two minutes at 500 rpm and subsequently incubated at room temperature for 10 minutes. Following incubation, the plates were spun at 3000×g for 30 seconds, then sealed with an optical adhesive cover, and luminescence readings were measured with an EnVision Plate Reader (Perkin Elmer).
Data was normalized using zero luminescence for baseline. A four-parameter non-linear regression curve fit was applied to dose-response data in GraphPad Prism data analysis software to determine the half-maximal growth inhibitory concentration (GI50) for each test compound.
Background: In ATP-based viability assays light output follows the ATP content of the culture.

In test [1], `Cc1sc2c(c1C)C(c1ccc(Cl)cc1)=N[C@H](CC(=O)NCCOCCOCCOCCOC1CCN(c3ncc(C(=O)N[C@H]4C(C)(C)[C@H](Oc5ccc(C#N)c(Cl)c5)C4(C)C)cn3)CC1)c1nnc(C)n1-2` [Compound I-13] registered a Kd of less than 50 nM. In addition, the 50% growth inhibitory concentration (GI50) in test [2] lay within 1500 to 3000 nM.

In test [1], `Cc1sc2c(c1C)C(c1ccc(Cl)cc1)=N[C@@H](CC(=O)NCCOCCOCCOCC1CCN(c3ncc(C(=O)N[C@H]4C(C)(C)[C@H](Oc5ccc(C#N)c(Cl)c5)C4(C)C)cn3)CC1)c1nnc(C)n1-2` [Compound I-17] showed a Kd of less than 50 nM. The molecule further had a concentration for 50% growth inhibition (GI50) in test [2] greater than 3000 nM.

For the molecule `Cc1sc2c(c1C)C(c1ccc(Cl)cc1)=N[C@H](CC(=O)NCCOCCOCCOCCOCCN(C)c1ncc(C(=O)N[C@H]3C(C)(C)[C@H](Oc4ccc(C#N)c(Cl)c4)C3(C)C)cn1)c1nnc(C)n1-2` [Compound I-19], the Kd in test [1] was less than 50 nM. Further, the GI50 in test [2] lay in the range of 1500 to 3000 nM.

Consider `CCNC(=O)C[C@@H]1N=C(c2cccc(OCCOCCOCCOC3CCN(c4ncc(C(=O)N[C@H]5C(C)(C)[C@H](Oc6ccc(C#N)c(Cl)c6)C5(C)C)cn4)CC3)c2)c2c(sc(C)c2C)-n2c(C)nnc21` [Compound I-48, N-((1r,3r)-3-(3-chloro-4-cyanophenoxy)-2,2,4,4-tetramethylcyclobutyl)-2-(4-(2-(2-(2-(3-((S)-6-(2-(ethylamino)-2-oxoethyl)-2,3,9-trimethyl-6H-thieno[3,2-f][1,2,4]triazolo[4,3-a][1,4]diazepin-4-yl)phenoxy)ethoxy)ethoxy)ethoxy)piperidin-1-yl)pyrimidine-5-carboxamide], for which the Kd in test [1] is less than 50 nM. This molecule yielded a concentration for 50% growth inhibition (GI50) in test [2] greater than 3000 nM.
